This is an account of results in ChEMBL document CHEMBL4823254, “Tetrahydroquinoline-Capped Histone Deacetylase 6 Inhibitor SW-101 Ameliorates Pathological Phenotypes in a Charcot-Marie-Tooth Type 2A Mouse Model” (J Med Chem, 2021).

For data set [1], the target named is T1, Protein deacetylase HDAC6 (Mus musculus) (UniProt Q9Z2V5).
T1 sequence (whole entry): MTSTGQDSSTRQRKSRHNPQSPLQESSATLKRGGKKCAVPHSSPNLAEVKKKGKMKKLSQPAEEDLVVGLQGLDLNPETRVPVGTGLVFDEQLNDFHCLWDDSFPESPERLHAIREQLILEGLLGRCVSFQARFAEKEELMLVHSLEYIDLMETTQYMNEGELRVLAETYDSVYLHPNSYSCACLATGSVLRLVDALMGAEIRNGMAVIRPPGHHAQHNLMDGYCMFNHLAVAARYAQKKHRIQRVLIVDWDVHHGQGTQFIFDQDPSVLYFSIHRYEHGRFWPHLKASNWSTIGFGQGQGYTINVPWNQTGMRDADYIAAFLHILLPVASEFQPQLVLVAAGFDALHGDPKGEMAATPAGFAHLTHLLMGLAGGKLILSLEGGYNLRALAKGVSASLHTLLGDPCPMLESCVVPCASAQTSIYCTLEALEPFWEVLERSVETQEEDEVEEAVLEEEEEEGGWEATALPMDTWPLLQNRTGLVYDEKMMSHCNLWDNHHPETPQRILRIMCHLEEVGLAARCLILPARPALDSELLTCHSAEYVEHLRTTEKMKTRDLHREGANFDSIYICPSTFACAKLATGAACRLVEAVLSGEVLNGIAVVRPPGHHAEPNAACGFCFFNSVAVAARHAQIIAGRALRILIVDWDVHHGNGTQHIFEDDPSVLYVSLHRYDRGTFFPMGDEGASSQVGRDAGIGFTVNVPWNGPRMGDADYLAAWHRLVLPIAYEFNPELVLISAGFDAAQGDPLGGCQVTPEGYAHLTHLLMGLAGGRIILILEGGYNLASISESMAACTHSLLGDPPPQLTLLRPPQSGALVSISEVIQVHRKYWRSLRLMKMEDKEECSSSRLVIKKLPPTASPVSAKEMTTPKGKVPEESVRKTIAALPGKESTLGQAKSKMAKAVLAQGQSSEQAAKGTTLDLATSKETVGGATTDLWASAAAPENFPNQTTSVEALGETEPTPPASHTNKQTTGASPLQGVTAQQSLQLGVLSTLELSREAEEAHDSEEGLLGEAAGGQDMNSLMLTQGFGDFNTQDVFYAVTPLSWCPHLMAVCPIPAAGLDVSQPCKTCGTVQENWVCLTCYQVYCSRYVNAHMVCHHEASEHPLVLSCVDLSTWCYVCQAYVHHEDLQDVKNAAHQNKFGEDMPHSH
The data set can be described thus: Inhibition of HDAC6 in mouse Neuro2a cells assessed as fold increase in ratio of acetylated alpha-tubulin to alpha tubulin at 1 uM incubated for overnight by Western blot analysis. As to conditions: time 12.0 hrs. It counts as cell-based. In general terms: In western blotting, separated proteins are transferred to a membrane and probed.

The nature of data set [2]: Stability in CD1 mouse pooled liver microsomes assessed as parent compound remaining measured at 60 mins in presence of NADPH by LC-MS/MS analysis. It counts as ADME, Microsome. Conditions: for remaining at 1 h: CD1, mouse, pooled liver microsomes, read-out: Stabilty.
The nature of data set [3]: Half life in CD1 mouse pooled liver microsomes assessed as parent compound remaining measured up to 60 mins in presence of NADPH by LC-MS/MS analysis. As to conditions: for half-life: CD1, mouse, pooled liver microsomes. The data set is classed as ADME, Microsome. (In general: Liver microsomes are a subcellular fraction often used to study metabolism.)
Data set [4] deals with T2, Histone deacetylase 8 (Homo sapiens, UniProt Q9BY41).
T2 sequence (Q9BY41 whole entry): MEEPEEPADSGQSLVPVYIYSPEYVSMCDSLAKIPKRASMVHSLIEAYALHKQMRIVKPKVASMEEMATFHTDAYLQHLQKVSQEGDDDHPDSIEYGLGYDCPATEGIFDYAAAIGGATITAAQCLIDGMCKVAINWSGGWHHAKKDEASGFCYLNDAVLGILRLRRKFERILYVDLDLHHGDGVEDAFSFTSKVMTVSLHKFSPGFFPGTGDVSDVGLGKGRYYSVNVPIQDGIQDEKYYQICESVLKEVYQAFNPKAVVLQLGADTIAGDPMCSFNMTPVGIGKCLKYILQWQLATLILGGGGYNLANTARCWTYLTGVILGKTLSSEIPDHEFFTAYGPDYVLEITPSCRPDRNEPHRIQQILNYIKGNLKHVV
Description: Inhibition of recombinant human HDAC8 using Boc-Lys(TFA)-AMC as substrate preincubated for 10 mins followed by substrate addition and measured after 30 mins by fluorescence-based assay

Data set [5] concerns the target T3, Protein deacetylase HDAC6 (Homo sapiens, UniProt Q9UBN7).
T3 sequence (Q9UBN7 whole entry): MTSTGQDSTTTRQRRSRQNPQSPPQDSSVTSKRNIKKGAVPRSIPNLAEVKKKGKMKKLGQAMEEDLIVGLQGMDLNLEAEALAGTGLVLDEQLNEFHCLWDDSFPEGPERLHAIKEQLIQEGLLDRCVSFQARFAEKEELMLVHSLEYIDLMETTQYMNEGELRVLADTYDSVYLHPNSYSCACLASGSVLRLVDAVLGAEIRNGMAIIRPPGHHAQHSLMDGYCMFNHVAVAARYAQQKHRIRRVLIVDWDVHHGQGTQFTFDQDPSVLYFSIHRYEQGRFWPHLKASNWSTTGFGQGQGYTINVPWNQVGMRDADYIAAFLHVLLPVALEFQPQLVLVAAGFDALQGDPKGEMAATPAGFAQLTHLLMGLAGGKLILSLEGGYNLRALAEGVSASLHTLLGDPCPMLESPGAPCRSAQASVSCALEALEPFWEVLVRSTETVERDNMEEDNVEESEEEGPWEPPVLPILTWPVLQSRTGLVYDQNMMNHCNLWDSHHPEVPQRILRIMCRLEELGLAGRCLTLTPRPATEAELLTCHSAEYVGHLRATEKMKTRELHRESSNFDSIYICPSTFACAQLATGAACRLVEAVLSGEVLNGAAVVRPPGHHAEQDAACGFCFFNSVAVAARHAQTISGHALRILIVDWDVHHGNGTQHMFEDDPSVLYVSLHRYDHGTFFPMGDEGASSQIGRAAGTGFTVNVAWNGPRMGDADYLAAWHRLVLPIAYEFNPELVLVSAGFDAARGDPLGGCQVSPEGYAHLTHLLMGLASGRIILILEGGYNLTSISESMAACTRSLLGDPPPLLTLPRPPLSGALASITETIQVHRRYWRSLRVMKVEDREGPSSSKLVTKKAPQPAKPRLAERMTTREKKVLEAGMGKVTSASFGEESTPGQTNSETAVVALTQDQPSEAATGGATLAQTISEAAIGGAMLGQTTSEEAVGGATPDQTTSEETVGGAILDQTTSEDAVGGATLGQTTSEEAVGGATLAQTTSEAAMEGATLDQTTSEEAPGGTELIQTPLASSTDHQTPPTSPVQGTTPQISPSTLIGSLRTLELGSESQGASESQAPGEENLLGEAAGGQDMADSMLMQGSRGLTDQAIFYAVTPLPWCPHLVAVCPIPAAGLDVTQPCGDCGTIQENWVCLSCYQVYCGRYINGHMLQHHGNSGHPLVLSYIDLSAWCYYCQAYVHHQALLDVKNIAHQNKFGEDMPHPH
Description: Inhibition of recombinant human HDAC6 using Ac-GAK(Ac)-AMC as substrate preincubated for 10 mins followed by substrate addition and measured after 30 mins by fluorescence-based assay

The nature of data set [6]: Stability in human pooled liver microsomes assessed as parent compound remaining measured at 60 mins in presence of NADPH by LC-MS/MS analysis. It counts as ADME, Microsome. As to conditions: pooled liver microsomes, read-out: Stabilty.
A short description of data set [7]: Half life in human pooled liver microsomes assessed as parent compound remaining measured up to 60 mins in presence of NADPH by LC-MS/MS analysis. The data set is classed as ADME, Microsome. As to conditions: pooled liver microsomes.
Data set [8] deals with T4, Histone deacetylase 1 (Homo sapiens, UniProt Q13547).
T4 sequence (Q13547 whole entry): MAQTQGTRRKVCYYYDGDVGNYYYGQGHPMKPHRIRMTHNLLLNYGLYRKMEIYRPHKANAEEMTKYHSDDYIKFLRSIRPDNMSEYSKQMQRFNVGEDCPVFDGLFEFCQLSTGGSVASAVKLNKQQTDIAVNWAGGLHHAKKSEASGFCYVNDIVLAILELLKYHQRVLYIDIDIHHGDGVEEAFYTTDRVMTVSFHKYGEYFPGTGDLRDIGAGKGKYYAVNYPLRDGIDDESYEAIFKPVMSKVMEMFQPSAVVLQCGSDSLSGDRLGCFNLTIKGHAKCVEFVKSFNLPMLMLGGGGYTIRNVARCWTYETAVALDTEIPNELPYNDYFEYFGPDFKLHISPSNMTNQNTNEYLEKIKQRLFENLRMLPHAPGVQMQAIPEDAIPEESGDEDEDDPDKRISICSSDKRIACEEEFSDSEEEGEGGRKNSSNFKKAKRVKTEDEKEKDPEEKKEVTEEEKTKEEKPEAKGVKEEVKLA
Description: Inhibition of recombinant human HDAC1 using Ac-GAK(Ac)-AMC as substrate preincubated for 10 mins followed by substrate addition and measured after 30 mins by fluorescence-based assay
Data set [9] addresses T1, Protein deacetylase HDAC6 (Mus musculus). The data set can be described thus: Inhibition of HDAC6 in mouse Neuro2a cells assessed as fold increase in ratio of acetylated alpha-tubulin to alpha tubulin at 0.01 uM incubated for overnight by Western blot analysis. The data set is classed as cell-based. Conditions: time 12.0 hrs.
The species entered for data set [10] is Homo sapiens. As to the kind of experiment: Selectivity index, ratio of IC50 for full length recombinant C-terminal FLAG-His-tagged human HDAC1 expressed in baculovirus infected Sf21 insect cells using RHK-K(Ac)-AMC peptide as substrate measured after 60 mins by fluorimetry analysis to IC50 for full length recombinant N-terminal GST-tagged ….
Description: Selectivity index, ratio of IC50 for full length recombinant C-terminal FLAG-His-tagged human HDAC1 expressed in baculovirus infected Sf21 insect cells using RHK-K(Ac)-AMC peptide as substrate measured after 60 mins by fluorimetry analysis to IC50 for full length recombinant N-terminal GST-tagged human HDAC6 expressed in baculovirus infected Sf9 insect cells using RHK-K(Ac)-AMC peptide as substrate measured after 90 mins by fluorimetry analysis
Data set [11] addresses T4, Histone deacetylase 1. The data set can be described thus: Inhibition of full length recombinant C-terminal FLAG-His-tagged human HDAC1 expressed in baculovirus infected Sf21 insect cells using RHK-K(Ac)-AMC peptide as substrate measured after 60 mins by fluorimetry analysis.
Data set [12] deals with T3, Protein deacetylase HDAC6. As to the kind of experiment: biochemical.
Description: Inhibition of full length recombinant N-terminal GST-tagged human HDAC6 expressed in baculovirus infected Sf9 insect cells using RHK-K(Ac)-AMC peptide as substrate measured after 90 mins by fluorimetry analysis

By half-life is commonly meant how long it takes for the measured level to halve. Broadly, the IC50 is the midpoint of a concentration-inhibition curve. Turning to `O=C(NO)c1ccc(CN2CCCCc3cc(-c4cc[nH]n4)ccc32)cc1`, the figures for the fold change (FC) in data set [1] and in data set [9] were 1.78 and 0.95, respectively. Also, the remaining at 1 h came to 10.1% in data set [2] and 15% in data set [6]. Besides, the half-life in data set [3] was determined as 0.305 h; in data set [7], 0.37 h. The 50% inhibitory concentration (IC50) in data set [4] was found to be 2820 nM; in data set [5], 17 nM; in data set [8], 1080 nM.
Consider `O=C(NO)c1ccc(CN2C(=O)CCCc3cc(Cl)ccc32)cc1`, for which the results for the fold change (FC) in [1] and in [9] were 1.73 and 2.81, respectively. Further, the remaining at 1 h in [2] is 68.1%; in data set [6], 95.3%. Besides, the half-life in data set [3] was determined as 1.83 h; in data set [7], 12 h. The IC50 in [4] was found to be 1170 nM; in data set [5], 0.8 nM; in data set [8], 126 nM.
For `O=C(NO)c1ccc(CN2C(=O)CCc3cc(Cl)ccc32)cc1`, the fold change (FC) in data set [1] turned out to be 1.51; in [9], 0.93. For the same compound, the Stabilty in data set [2] (mouse, microsomes, 1 h) is recorded as 77.7%. The t1/2 in [3] (mouse, microsomes, 1 h) turned out to be 29.05 h. The concentration for half-maximal inhibition (IC50) in data set [4] was 2080 nM; in data set [5] it was 2.9 nM; in data set [8], 276 nM. In addition, the remaining at 1 h in data set [6] was found to be 92.6%. The half-life in data set [7] stood at 9.62 h.
In the case of `O=C(NO)c1ccc(CN2CCCCc3cc(Cl)ccc32)cc1`, the fold change (FC) in data set [1] was determined as 0.55; in [9], 0.89. The remaining at 1 h is 34.7% in [2] and 83.9% in data set [6]. Besides, the half-life was found to be 1.01 h in data set [3] and 35.5 h in data set [7]. For the same compound, the 50% inhibitory concentration (IC50) in [4] is 8640 nM; in data set [5], 1 nM; in [8], 1900 nM.
For `O=C(NO)c1ccc(CN2CCCc3ccccc32)cc1`, in data set [10], the Ratio IC50 is 733. Further, the half-maximal inhibitory concentration (IC50) in data set [11] turned out to be 15 nM; in data set [12], 11000 nM. For the same compound, the results for the remaining at 1 h in [2] and in data set [6] were 34.1% and 73%, respectively. In addition, the half-life is 0.673 h in data set [3] and 3.02 h in data set [7].
